T/C data for eleven compounds are collected here from PubChem BioAssay AID270 (DTP/NCI, 2004).

The test system of the test is BDF1 mice, s.c. Lewis lung carcinoma, T/C %. Put plainly: NCI In Vivo Anticancer Drug Screen. Data for tumor model Lewis Lung Carcinoma (subcutaneous) in B6D2F1 (BDF1) mice. Put shortly: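 Tumor-bearing mice were treated with test compound, and either survival or tumor size was recorded. Values are the treated-group measurement divided by that of the vehicle-treated control group.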

[1] abbreviates: endpoint: mean tumor weight, dose: 2.5 mg/kg/injection, schedule: Q01DX011 (ip), vehicle: carboxymethylcellulose (CMC), higher = larger tumour.

Where “and” joins values, the source holds several entries; their conditions need not be identical. Equal values may be shown once. Results filed as inconclusive are left out.

Consider `O=NN(CCCl)C(=O)NC1CCC(=O)NC1=O` (centres undefined), for which the T/C (endpoint: median survival time, dose: 0.5 mg/kg/injection, schedule: Q01DX009 (ip), vehicle: Klucel (hydroxypropylcellulose) (HPC), higher = longer survival) was 107 % of control and 110 % of control; the T/C (endpoint: median survival time, dose: 1.0 mg/kg/injection, schedule: Q01DX009 (ip), vehicle: Klucel (hydroxypropylcellulose) (HPC), higher = longer survival) is 100 % of control and 105 % of control; the T/C (endpoint: median survival time, dose: 1.25 mg/kg/injection, schedule: Q01DX009 (ip), vehicle: other, higher = longer survival) is 122 % of control; the T/C (endpoint: median survival time, dose: 2.0 mg/kg/injection, schedule: Q01DX009 (ip), vehicle: Klucel (hydroxypropylcellulose) (HPC), higher = longer survival) was 101 % of control and 117 % of control; the T/C (endpoint: median survival time, dose: 2.0 mg/kg/injection, schedule: Q02DX009 (ip), vehicle: saline with Tween-80, higher = longer survival) was 90 % of control; the T/C (endpoint: median survival time, dose: 3.0 mg/kg/injection, schedule: Q02DX009 (ip), vehicle: saline with Tween-80, higher = longer survival) was 93 % of control. The T/C (endpoint: median survival time, dose: 4.0 mg/kg/injection, schedule: Q01DX009 (ip), vehicle: Klucel (hydroxypropylcellulose) (HPC), higher = longer survival) is 182 % of control; the T/C (endpoint: median survival time, dose: 5.0 mg/kg/injection, schedule: Q01DX001 (ip), vehicle: gum acacia, higher = longer survival) is 89 % of control; the T/C (endpoint: median survival time, dose: 5.0 mg/kg/injection, schedule: Q01DX001 (ip), vehicle: other, higher = longer survival) is 120 % of control; the T/C (endpoint: median survival time, dose: 5.0 mg/kg/injection, schedule: Q01DX001 (ip), vehicle: saline, higher = longer survival) is 96 % of control; the T/C (endpoint: median survival time, dose: 6.0 mg/kg/injection, schedule: Q04DX003 (ip), vehicle: saline with Tween-80, higher = longer survival) was 93 % of control; the T/C (endpoint: median survival time, dose: 10.0 mg/kg/injection, schedule: Q01DX001 (ip), vehicle: other, higher = longer survival) was 107 % of control and 124 % of control. The T/C was 111 % of control (endpoint: median survival time, dose: 10.0 mg/kg/injection, schedule: Q01DX001 (ip), vehicle: saline with Tween-80, higher = longer survival); 101 % of control (endpoint: median survival time, dose: 10.0 mg/kg/injection, schedule: Q01DX001 (ip), vehicle: saline, higher = longer survival); 120 % of control (endpoint: median survival time, dose: 10.0 mg/kg/injection, schedule: Q04DX003 (ip), vehicle: saline with Tween-80, higher = longer survival); 108 % of control (endpoint: median survival time, dose: 15.0 mg/kg/injection, schedule: Q01DX001 (ip), vehicle: saline with Tween-80, higher = longer survival); 208 % of control (endpoint: median survival time, dose: 22.5 mg/kg/injection, schedule: Q01DX001 (ip), vehicle: saline with Tween-80, higher = longer survival); 168 % of control (endpoint: median survival time, dose: 26.0 mg/kg/injection, schedule: Q01DX001 (ip), vehicle: gum acacia, higher = longer survival). In addition, the T/C runs as follows: (endpoint: median survival time, dose: 40.0 mg/kg/injection, schedule: Q01DX001 (ip), vehicle: saline, higher = longer survival) 156 % of control; (endpoint: median tumor weight (est.), dose: 7.6 mg/kg/injection, schedule: Q01DX001 (ip), vehicle: gum acacia, higher = larger tumour) 93 % of control; (endpoint: median tumor weight (est.), dose: 15.0 mg/kg/injection, schedule: Q01DX001 (ip), vehicle: gum acacia, higher = larger tumour) 10 % of control.

As for `CN(CCC(=O)c1ccccc1)CCC(=O)c1ccccc1`, the T/C (endpoint: mean tumor weight, dose: 55.0 mg/kg/injection, schedule: Q01DX011 (ip), vehicle: other, higher = larger tumour) is 91 % of control and the T/C (endpoint: mean tumor weight, dose: 83.0 mg/kg/injection, schedule: Q01DX011 (ip), vehicle: other, higher = larger tumour) is 122 % of control.

As to `O=C(Nc1ccc(C2=NCCCN2)cc1)c1ccc(C(=O)Nc2ccc(C3=NCCCN3)cc2)cc1`, the T/C is 73 % of control (endpoint: mean tumor weight, dose: 0.25 mg/kg/injection, schedule: Q01DX011 (ip), vehicle: other, higher = larger tumour); 98 % of control (endpoint: mean tumor weight, dose: 0.5 mg/kg/injection, schedule: Q01DX011 (ip), vehicle: other, higher = larger tumour); 85 % of control (endpoint: mean tumor weight, dose: 1.0 mg/kg/injection, schedule: Q01DX011 (ip), vehicle: other, higher = larger tumour); 73 % of control (endpoint: mean tumor weight, dose: 2.0 mg/kg/injection, schedule: Q01DX011 (ip), vehicle: other, higher = larger tumour); 7 % of control (endpoint: mean tumor weight, dose: 4.0 mg/kg/injection, schedule: Q01DX011 (ip), vehicle: other, higher = larger tumour).

As to `CC1OC(O[C@@H]2C=C3CC[C@@H]4[C@H](CC[C@]5(C)[C@@H](c6ccc(=O)oc6)CC[C@]45O)[C@@]3(C)CC2)C(O)C(OC2OC(CO)C(O)C(O)C2O)C1O` (some centres undefined), the T/C by setting is: (endpoint: mean tumor weight, dose: 1.2 mg/kg/injection, schedule: Q01DX011 (ip), vehicle: carboxymethylcellulose (CMC), higher = larger tumour) 106 % of control; under setting [1], 102 % of control; (endpoint: mean tumor weight, dose: 5.0 mg/kg/injection, schedule: Q01DX011 (ip), vehicle: carboxymethylcellulose (CMC), higher = larger tumour) 80 % of control.

With `C=C/C(C)=C/[C@H](C)C(=O)C[C@H](O)CC1CC(=O)NC(=O)C1`, the T/C is, setting by setting: (endpoint: median survival time, dose: 6.25 mg/kg/injection, schedule: Q01DX009 (ip), vehicle: saline with Tween-80, higher = longer survival) 95 % of control; (endpoint: median survival time, dose: 12.5 mg/kg/injection, schedule: Q01DX009 (ip), vehicle: saline with Tween-80, higher = longer survival) 98 % of control; (endpoint: median survival time, dose: 12.5 mg/kg/injection, schedule: Q04DX003 (ip), vehicle: saline with Tween-80, higher = longer survival) 98 % of control; (endpoint: median survival time, dose: 25.0 mg/kg/injection, schedule: Q01DX009 (ip), vehicle: saline with Tween-80, higher = longer survival) 97 % of control; (endpoint: median survival time, dose: 25.0 mg/kg/injection, schedule: Q04DX003 (ip), vehicle: saline with Tween-80, higher = longer survival) 111 % of control; (endpoint: median survival time, dose: 50.0 mg/kg/injection, schedule: Q04DX003 (ip), vehicle: saline with Tween-80, higher = longer survival) 92 % of control. In addition, for the setting “endpoint: median survival time, dose: 100.0 mg/kg/injection, schedule: Q04DX003 (ip), vehicle: saline with Tween-80, higher = longer survival”, the T/C was 101 % of control.

As for `CC1=C(/C=C/C(C)=C/C=C/C(C)=C/CO)C(C)(C)CCC1`, the T/C is, setting by setting: (endpoint: median survival time, dose: 4.0 mg/kg/injection, schedule: Q01DX005 (ip), vehicle: saline with Tween-80, higher = longer survival) 108 % of control; (endpoint: median survival time, dose: 12.5 mg/kg/injection, schedule: Q01DX005 (ip), vehicle: saline with Tween-80, higher = longer survival) 109 % of control; (endpoint: median survival time, dose: 16.0 mg/kg/injection, schedule: Q01DX005 (ip), vehicle: saline with Tween-80, higher = longer survival) 111 % of control; (endpoint: median survival time, dose: 32.0 mg/kg/injection, schedule: Q01DX005 (ip), vehicle: saline with Tween-80, higher = longer survival) 115 % of control; (endpoint: median survival time, dose: 64.0 mg/kg/injection, schedule: Q01DX005 (ip), vehicle: saline with Tween-80, higher = longer survival) 191 % of control; (endpoint: median survival time, dose: 128.0 mg/kg/injection, schedule: Q01DX005 (ip), vehicle: saline with Tween-80, higher = longer survival) 92 % of control.

As to `ClCC[N-]CC[N-]CCCl.ClCC[N-]CC[N-]CCCl.[O-][Cl+3]([O-])([O-])O.[Zn+2]`, the T/C is 101 % of control (endpoint: median survival time, dose: 5.0 mg/kg/injection, schedule: Q01DX009 (ip), vehicle: saline with Tween-80, higher = longer survival); 101 % of control (endpoint: median survival time, dose: 10.0 mg/kg/injection, schedule: Q01DX009 (ip), vehicle: saline with Tween-80, higher = longer survival); 105 % of control (endpoint: median survival time, dose: 20.0 mg/kg/injection, schedule: Q01DX009 (ip), vehicle: saline with Tween-80, higher = longer survival); 99 % of control (endpoint: median survival time, dose: 40.0 mg/kg/injection, schedule: Q01DX009 (ip), vehicle: saline with Tween-80, higher = longer survival).

With `COc1ccc(C[C@H](N)C(=O)NC2C(CO)OC(n3cnc4c(N(C)C)ncnc43)C2O)cc1` (some centres undefined), the T/C is 97 % of control (endpoint: median survival time, dose: 2.0 mg/kg/injection, schedule: Q01DX009 (ip), vehicle: saline, higher = longer survival); 96 % of control and 101 % of control (endpoint: median survival time, dose: 4.0 mg/kg/injection, schedule: Q01DX009 (ip), vehicle: saline, higher = longer survival); 102 % of control (endpoint: median survival time, dose: 8.0 mg/kg/injection, schedule: Q01DX009 (ip), vehicle: saline, higher = longer survival); 99 % of control (endpoint: median survival time, dose: 16.0 mg/kg/injection, schedule: Q01DX009 (ip), vehicle: saline, higher = longer survival); 90 % of control and 110 % of control (endpoint: median survival time, dose: 32.0 mg/kg/injection, schedule: Q01DX009 (ip), vehicle: saline, higher = longer survival); 97 % of control and 102 % of control (endpoint: median survival time, dose: 64.0 mg/kg/injection, schedule: Q01DX009 (ip), vehicle: saline, higher = longer survival). Also, where the note is “endpoint: median survival time, dose: 128.0 mg/kg/injection, schedule: Q01DX009 (ip), vehicle: saline, higher = longer survival”, the T/C was 102 % of control.

On to `O=NN(CCCl)C(=O)NC1CCCC1`, for which the T/C reads like this: (endpoint: median tumor weight (est.), dose: 33.0 mg/kg/injection, schedule: Q01DX001 (ip), vehicle: saline, higher = larger tumour) 62 % of control; (endpoint: median tumor weight (est.), dose: 67.0 mg/kg/injection, schedule: Q01DX001 (ip), vehicle: saline, higher = larger tumour) 76 % of control; (endpoint: median tumor weight (est.), dose: 100.0 mg/kg/injection, schedule: Q01DX001 (ip), vehicle: saline, higher = larger tumour) 56 % of control.

On to `NC(=O)c1ccc(NC(=O)CCC(=O)Nc2ccc(C(N)=O)cn2)nc1`, for which the T/C was 54 % of control (endpoint: mean tumor weight, dose: 1.25 mg/kg/injection, schedule: Q01DX011 (ip), vehicle: carboxymethylcellulose (CMC), higher = larger tumour) and 24 % of control under setting [1].

`CC(=O)O[C@]1(C(C)=O)CC[C@H]2[C@@H]3C[C@H](C)C4=CC(=O)CC[C@]4(C)[C@H]3CC[C@@]21C`: the T/C was 203 % of control (endpoint: median survival time, dose: 50.0 mg/kg/injection, schedule: Q01DX009 (ip), vehicle: Klucel (hydroxypropylcellulose) (HPC), higher = longer survival); 204 % of control (endpoint: median survival time, dose: 100.0 mg/kg/injection, schedule: Q01DX009 (ip), vehicle: Klucel (hydroxypropylcellulose) (HPC), higher = longer survival); 119 % of control (endpoint: median survival time, dose: 200.0 mg/kg/injection, schedule: Q01DX009 (ip), vehicle: Klucel (hydroxypropylcellulose) (HPC), higher = longer survival); 203 % of control (endpoint: median survival time, dose: 400.0 mg/kg/injection, schedule: Q01DX009 (ip), vehicle: Klucel (hydroxypropylcellulose) (HPC), higher = longer survival).
